According to ChEMBL document CHEMBL1201862, “PubChem BioAssay data set” (2004):
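These data come from cells grown in 96-well plates and exposed to compound for 48 hours at five concentrations. GI50 is the concentration that inhibits growth by half.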 Calls of active or inactive are those of the source. Cut-off read from the data, not from the text of the source: active = GI50 up to about 1.1 µM and inactive = higher.

Columns and labels:
Test in all cases: DTP human tumour cell line panel, 48 h
786-0 = test system: 786-0
ACHN = test system: ACHN
BT-549 = test system: BT-549
COLO 205 = test system: COLO 205
HCC 2998 = test system: HCC 2998
HCT-116 = test system: HCT-116
Hs-578T = test system: Hs-578T
IGROV-1 = test system: IGROV-1
M14 = test system: M14
MDA-MB-231 = test system: MDA-MB-231
MDA-N = test system: MDA-N
MOLT-4 = test system: MOLT-4
Malme-3M = test system: Malme-3M
RXF 393 = test system: RXF 393
SK-MEL-2 = test system: SK-MEL-2
SK-MEL-5 = test system: SK-MEL-5
SR = test system: SR
TK-10 = test system: TK-10
HOP-92 = test system: HOP-92

| SMILES | GI50 (786-0) | GI50 (ACHN) | GI50 (BT-549) | GI50 (COLO 205) | GI50 (HCC 2998) | GI50 (HCT-116) | GI50 (Hs-578T) | GI50 (IGROV-1) | GI50 (M14) | GI50 (MDA-MB-231) | GI50 (MDA-N) | GI50 (MOLT-4) | GI50 (Malme-3M) | GI50 (RXF 393) | GI50 (SK-MEL-2) | GI50 (SK-MEL-5) | GI50 (SR) | GI50 (TK-10) | GI50 (HOP-92) |
| --- | --- | --- | --- | --- | --- | --- | --- | --- | --- | --- | --- | --- | --- | --- | --- | --- | --- | --- | --- |
| N=c1c2ccccc2nc2oc3cc([N+](=O)[O-])ccc3n12 | 24.7 µM (inactive) | 23.7 µM (inactive) | 20.2 µM (inactive) | > 100 µM (inactive) | > 100 µM (inactive) | 25.6 µM (inactive) | 4.23 µM (inactive) | 27.4 µM (inactive) | > 100 µM (inactive) | 25.1 µM (inactive) | > 100 µM (inactive) | > 100 µM (inactive) | 25.9 µM (inactive) | 7.38 µM (inactive) | 94.2 µM (inactive) | 71.6 µM (inactive) | > 100 µM (inactive) | 19.6 µM (inactive) | – |
| COc1ccc(Oc2nc(C#CC(C)(C)O)nc(Oc3ccc(OC)cc3)n2)cc1 | – | 1.69 µM (inactive) | 14.9 µM (inactive) | 3.59 µM (inactive) | – | 2.82 µM (inactive) | 16.4 µM (inactive) | 5.45 µM (inactive) | 2.2 µM (inactive) | 2.88 µM (inactive) | 8.55 µM (inactive) | 1.53 µM (inactive) | 16.2 µM (inactive) | 1.39 µM (inactive) | 6.73 µM (inactive) | 14.5 µM (inactive) | 0.625 µM (active) | 12.6 µM (inactive) | – |
| O=c1[nH]nc(NNc2ccccc2)c2nnn(C3CCCCC3)c12 | – | > 100 µM (inactive) | > 100 µM (inactive) | > 100 µM (inactive) | > 100 µM (inactive) | > 100 µM (inactive) | – | – | > 100 µM (inactive) | > 100 µM (inactive) | > 100 µM (inactive) | > 100 µM (inactive) | > 100 µM (inactive) | – | > 100 µM (inactive) | > 100 µM (inactive) | > 100 µM (inactive) | > 100 µM (inactive) | > 100 µM (inactive) |
| CN1CCC2(CC1)C(=O)N(N1CCCCCC1)C(=O)N2c1ccccc1 | > 100 µM (inactive) | > 100 µM (inactive) | > 100 µM (inactive) | > 100 µM (inactive) | > 100 µM (inactive) | 18.2 µM (inactive) | 42.2 µM (inactive) | > 100 µM (inactive) | > 100 µM (inactive) | > 100 µM (inactive) | > 100 µM (inactive) | > 100 µM (inactive) | > 100 µM (inactive) | 31.3 µM (inactive) | > 100 µM (inactive) | > 100 µM (inactive) | > 100 µM (inactive) | > 100 µM (inactive) | – |
| CC(C)(C)C(=O)N1CCN(C=O)C1=S | 36.7 µM (inactive) | 57.9 µM (inactive) | 46.2 µM (inactive) | > 100 µM (inactive) | 64.9 µM (inactive) | > 100 µM (inactive) | 58.5 µM (inactive) | 47.3 µM (inactive) | 31 µM (inactive) | > 100 µM (inactive) | – | 61.5 µM (inactive) | 61.4 µM (inactive) | 24.6 µM (inactive) | > 100 µM (inactive) | – | – | 92 µM (inactive) | 16.8 µM (inactive) |
| Cc1cc(C)c(/C=C(\C(=C/c2c(C)cc(C)cc2C)[N+](=O)[O-])[N+](=O)[O-])c(C)c1 | – | > 100 µM (inactive) | > 100 µM (inactive) | > 100 µM (inactive) | > 100 µM (inactive) | > 100 µM (inactive) | – | > 100 µM (inactive) | > 100 µM (inactive) | > 100 µM (inactive) | > 100 µM (inactive) | 32.7 µM (inactive) | – | 20.6 µM (inactive) | > 100 µM (inactive) | 86.5 µM (inactive) | 30.4 µM (inactive) | > 100 µM (inactive) | > 100 µM (inactive) |
| CN(C)S(=O)(=O)n1cnc(CO)c1 | > 100 µM (inactive) | > 100 µM (inactive) | > 100 µM (inactive) | > 100 µM (inactive) | > 100 µM (inactive) | > 100 µM (inactive) | – | > 100 µM (inactive) | > 100 µM (inactive) | > 100 µM (inactive) | > 100 µM (inactive) | > 100 µM (inactive) | > 100 µM (inactive) | > 100 µM (inactive) | > 100 µM (inactive) | > 100 µM (inactive) | – | > 100 µM (inactive) | > 100 µM (inactive) |
| S=c1[nH]nc(COc2ccc3c(c2)CCCC3)n1/N=C/c1ccc(Cl)cc1 | – | 20.1 µM (inactive) | 17 µM (inactive) | 16.6 µM (inactive) | – | 14.5 µM (inactive) | 21.6 µM (inactive) | 16.4 µM (inactive) | 18 µM (inactive) | 24.1 µM (inactive) | 17.7 µM (inactive) | 19.4 µM (inactive) | 17 µM (inactive) | 14.4 µM (inactive) | 18.2 µM (inactive) | 15.7 µM (inactive) | – | 20.1 µM (inactive) | 14.7 µM (inactive) |
| Fc1ccc(C(OCCN2CC3CC2CN3)c2ccc(F)cc2)cc1 (stereo not given) | – | > 100 µM (inactive) | > 100 µM (inactive) | 18.2 µM (inactive) | 16.4 µM (inactive) | – | 57.3 µM (inactive) | 53.3 µM (inactive) | – | 46.8 µM (inactive) | – | 43.1 µM (inactive) | 16.7 µM (inactive) | 27.4 µM (inactive) | 19.1 µM (inactive) | 16.4 µM (inactive) | 27.5 µM (inactive) | 32.8 µM (inactive) | 69.2 µM (inactive) |
| O=c1c(-c2ccccc2)c(SCCCN2CCN(c3cccc(Cl)c3)CC2)n(-c2ccccc2)c(=S)n1-c1ccccc1 | – | > 100 µM (inactive) | > 100 µM (inactive) | > 100 µM (inactive) | > 100 µM (inactive) | – | > 100 µM (inactive) | > 100 µM (inactive) | – | > 100 µM (inactive) | – | > 100 µM (inactive) | > 100 µM (inactive) | > 100 µM (inactive) | > 100 µM (inactive) | > 100 µM (inactive) | 29 µM (inactive) | > 100 µM (inactive) | > 100 µM (inactive) |
| Cc1c2ccccc2nc2[nH]c3ccncc3c12 | 16.3 µM (inactive) | 18.7 µM (inactive) | 40.6 µM (inactive) | 40.4 µM (inactive) | – | – | 50.7 µM (inactive) | 29.5 µM (inactive) | 32.8 µM (inactive) | 78.5 µM (inactive) | 35 µM (inactive) | > 100 µM (inactive) | 31 µM (inactive) | – | 40.7 µM (inactive) | 29.4 µM (inactive) | 26.9 µM (inactive) | 19.3 µM (inactive) | 33 µM (inactive) |
| CCOC(=O)CCC(NC(=O)OCc1ccccc1)C(=O)NC(CCC(=O)OCC)C(=O)NC(CCC(=O)OCC)C(=O)NC(CCC(=O)OCC)C(=O)NC(CCC(=O)OCC)C(=O)NC(CCC(=O)OCC)C(=O)NC(CCC(=O)OCC)C(=O)OCC (stereo not given) | > 100 µM (inactive) | > 100 µM (inactive) | > 100 µM (inactive) | – | 26.1 µM (inactive) | > 100 µM (inactive) | – | – | > 100 µM (inactive) | > 100 µM (inactive) | > 100 µM (inactive) | > 100 µM (inactive) | 90.6 µM (inactive) | – | > 100 µM (inactive) | > 100 µM (inactive) | 70.8 µM (inactive) | > 100 µM (inactive) | – |
| CC1=C(C(=O)OCCO[N+](=O)[O-])C(c2ccccc2C(F)(F)F)C(C(=O)OC(C)C)=C(C)N1 (stereo not given) | 15 µM (inactive) | 25.7 µM (inactive) | 13.5 µM (inactive) | 14 µM (inactive) | 22.4 µM (inactive) | 9.84 µM (inactive) | – | 13.1 µM (inactive) | 13.1 µM (inactive) | 10.9 µM (inactive) | – | 4.7 µM (inactive) | 18.3 µM (inactive) | 10.3 µM (inactive) | 12.8 µM (inactive) | 10 µM (inactive) | 41.7 µM (inactive) | 18.1 µM (inactive) | 3.03 µM (inactive) |
| CN(C)Cc1cc(/C=C/C(=O)c2ccc(Cl)c(Cl)c2)cc(CN(C)C)c1O | 9.4 µM (inactive) | 12.8 µM (inactive) | 7.74 µM (inactive) | 11.2 µM (inactive) | 6.35 µM (inactive) | 12.8 µM (inactive) | – | 9.98 µM (inactive) | 13 µM (inactive) | 7.05 µM (inactive) | 11.2 µM (inactive) | 10.1 µM (inactive) | 9.59 µM (inactive) | 11 µM (inactive) | 14 µM (inactive) | 11.7 µM (inactive) | – | 12.4 µM (inactive) | – |
| C/C(=C/C(=O)N(C)c1ccccc1Cl)O[Si](C(C)C)(C(C)C)C(C)C | 18.1 µM (inactive) | > 10 µM (inactive) | 22.5 µM (inactive) | 16.8 µM (inactive) | – | 17.8 µM (inactive) | – | 23.1 µM (inactive) | 27.5 µM (inactive) | 22.4 µM (inactive) | 21.3 µM (inactive) | 40.4 µM (inactive) | 23.9 µM (inactive) | 17.3 µM (inactive) | – | 16.4 µM (inactive) | – | 33.5 µM (inactive) | 16.1 µM (inactive) |
| CS(=O)(=O)OCC(CCl)(CCl)CCl | – | > 100 µM (inactive) | – | > 100 µM (inactive) | > 100 µM (inactive) | > 100 µM (inactive) | > 100 µM (inactive) | – | > 100 µM (inactive) | > 100 µM (inactive) | > 100 µM (inactive) | > 100 µM (inactive) | – | > 100 µM (inactive) | – | > 100 µM (inactive) | > 100 µM (inactive) | > 100 µM (inactive) | > 100 µM (inactive) |
| CCCCN(CCCC)C1=Nc2ccccc2-n2c(nnc2C(=O)OCC)C1 | 73.1 µM (inactive) | 38.3 µM (inactive) | – | 18.5 µM (inactive) | 38.8 µM (inactive) | 27.4 µM (inactive) | > 100 µM (inactive) | 35.9 µM (inactive) | 44.3 µM (inactive) | 38.1 µM (inactive) | – | 27 µM (inactive) | 24.6 µM (inactive) | 24.7 µM (inactive) | – | 15.1 µM (inactive) | 19.1 µM (inactive) | 38.7 µM (inactive) | 33.6 µM (inactive) |
